{"source": "ChEMBL document CHEMBL4715830", "about": "“Design, synthesis and biological evaluation of suramin-derived dual antagonists of the proinflammatory G protein-coupled receptors P2Y and GPR17” (Eur J Med Chem, 2020)", "key": {"[1]": {"target": "P2Y purinoceptor 4 (Homo sapiens) (UniProt P51582)", "sequence (P51582 whole entry)": "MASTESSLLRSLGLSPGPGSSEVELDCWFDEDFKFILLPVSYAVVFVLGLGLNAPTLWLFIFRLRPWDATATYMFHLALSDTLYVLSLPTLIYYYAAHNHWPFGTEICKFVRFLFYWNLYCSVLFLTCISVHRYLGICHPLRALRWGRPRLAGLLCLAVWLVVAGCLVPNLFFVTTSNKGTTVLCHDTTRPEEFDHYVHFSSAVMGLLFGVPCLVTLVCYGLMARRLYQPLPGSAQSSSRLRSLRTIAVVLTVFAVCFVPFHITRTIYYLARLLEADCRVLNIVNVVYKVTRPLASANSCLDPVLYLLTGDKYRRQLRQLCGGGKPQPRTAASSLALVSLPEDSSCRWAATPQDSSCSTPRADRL", "assay": "(§1) Antagonist activity at human P2Y4 receptor expressed in human 1321N1 cells assessed as inhibition of UTP-induced intracellular calcium influx at 10 to 100 uM preincubated for 20 mins followed by UTP addition measured at 0.4 secs interval for 60 times by Oregon Green BAPTA-1/AM dye-based fluorescence assay", "format": "functional, cell-based", "details": "dose 10-100 µM"}, "[2]": {"target": "P2Y purinoceptor 6 (Rattus norvegicus) (UniProt Q63371)", "sequence (Q63371 whole entry)": "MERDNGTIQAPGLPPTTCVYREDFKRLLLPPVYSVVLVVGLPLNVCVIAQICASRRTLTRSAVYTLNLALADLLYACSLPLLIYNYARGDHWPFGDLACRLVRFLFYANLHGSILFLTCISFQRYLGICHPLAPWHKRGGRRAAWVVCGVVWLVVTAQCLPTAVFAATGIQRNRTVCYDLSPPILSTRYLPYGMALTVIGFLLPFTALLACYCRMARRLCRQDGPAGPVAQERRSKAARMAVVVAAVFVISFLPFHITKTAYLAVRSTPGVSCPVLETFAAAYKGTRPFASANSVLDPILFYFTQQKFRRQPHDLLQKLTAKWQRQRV", "assay": "as §1, with “rat P2Y6” for “human P2Y4”, “UDP-induced” for “UTP-induced”, “UDP” for “UTP”", "format": "functional, cell-based", "details": "dose 10-100 µM"}, "[3]": {"target": "P2Y purinoceptor 1 (Homo sapiens) (UniProt P47900)", "sequence (P47900 whole entry)": "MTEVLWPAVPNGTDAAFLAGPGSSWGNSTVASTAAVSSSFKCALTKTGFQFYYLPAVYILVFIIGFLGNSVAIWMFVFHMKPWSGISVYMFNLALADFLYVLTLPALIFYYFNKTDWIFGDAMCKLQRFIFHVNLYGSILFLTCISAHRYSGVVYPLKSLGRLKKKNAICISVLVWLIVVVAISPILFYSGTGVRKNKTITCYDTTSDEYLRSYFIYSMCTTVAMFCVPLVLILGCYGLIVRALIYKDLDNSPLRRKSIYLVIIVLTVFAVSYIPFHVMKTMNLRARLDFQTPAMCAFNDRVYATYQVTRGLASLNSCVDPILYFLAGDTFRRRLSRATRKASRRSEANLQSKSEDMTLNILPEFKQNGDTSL", "assay": "Antagonist activity at human P2Y1 receptor expressed in human 1321N1 cells assessed as inhibition of ADP-induced intracellular calcium influx at 10 uM preincubated for 20 mins followed by ADP addition measured at 0.4 secs interval for 60 times by Oregon Green BAPTA-1/AM dye-based fluorescence assay", "format": "functional, cell-based"}, "[4]": {"target": "P2Y purinoceptor 12 (Homo sapiens) (UniProt Q9H244)", "sequence (Q9H244 whole entry)": "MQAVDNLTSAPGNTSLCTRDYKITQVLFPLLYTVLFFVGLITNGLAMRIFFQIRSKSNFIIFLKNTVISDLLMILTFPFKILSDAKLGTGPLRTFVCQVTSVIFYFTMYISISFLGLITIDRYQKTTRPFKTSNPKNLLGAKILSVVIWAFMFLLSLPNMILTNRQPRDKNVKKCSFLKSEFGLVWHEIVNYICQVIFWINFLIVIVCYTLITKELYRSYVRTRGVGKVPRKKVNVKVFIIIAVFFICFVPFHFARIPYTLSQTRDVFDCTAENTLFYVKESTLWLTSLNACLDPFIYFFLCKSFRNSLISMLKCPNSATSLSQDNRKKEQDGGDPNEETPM", "assay": "Antagonist activity at recombinant human Gi/Go-coupled GP2Y12 receptor expressed in CHOK1 cells assessed as inhibition of 2-(Methylthio)ADP-induced inhibition of beta-arrestin recruitment at 10 uM by pathhunter assay", "format": "cell-based", "details": "CHO-K1"}, "[5]": {"target": "T1, P2Y purinoceptor 14 (Homo sapiens) (UniProt Q15391)", "T1 sequence (whole entry)": "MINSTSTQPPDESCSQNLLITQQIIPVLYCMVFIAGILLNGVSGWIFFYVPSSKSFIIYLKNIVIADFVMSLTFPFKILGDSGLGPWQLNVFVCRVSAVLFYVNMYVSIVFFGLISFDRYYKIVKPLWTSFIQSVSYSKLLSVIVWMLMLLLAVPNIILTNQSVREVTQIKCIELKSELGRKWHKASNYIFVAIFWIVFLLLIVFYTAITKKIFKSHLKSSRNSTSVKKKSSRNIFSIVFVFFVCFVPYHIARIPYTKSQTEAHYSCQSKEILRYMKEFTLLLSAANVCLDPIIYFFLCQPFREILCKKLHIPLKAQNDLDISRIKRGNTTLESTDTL", "assay": "Antagonist activity at recombinant human Gi/Go-coupled GP2Y14 receptor expressed in CHOK1 cells assessed as inhibition of […]-induced inhibition of beta-arrestin recruitment at 10 uM by pathhunter assay", "format": "cell-based"}, "[6]": {"assay": "Chemical stability of compound in pH 3 MeOH/water solution measured after 24 hrs by HPLC-MS analysis", "format": "physicochemical", "details": "buffer, pH 3, 24 h"}, "[7]": {"assay": "Chemical stability of compound in pH 7 MeOH/water solution measured after 24 hrs by HPLC-MS analysis", "format": "physicochemical", "details": "buffer, pH 7, 24 h"}, "[8]": {"assay": "Chemical stability of compound in pH 7 MeOH/water solution at 70 degC measured after 24 hrs by HPLC-MS analysis", "format": "physicochemical", "details": "buffer, pH 7, 24 h"}, "[9]": {"assay": "Drug metabolism in pH 9 MeOH/water solution assessed as methyl 4-(2-chlorobenzamido)benzenesulfonate formation measured after 24 hrs by HPLC-MS analysis"}, "P2Y purinoceptor 2": {"target": "P2Y purinoceptor 2 (Homo sapiens, UniProt P41231)", "sequence (P41231 whole entry)": "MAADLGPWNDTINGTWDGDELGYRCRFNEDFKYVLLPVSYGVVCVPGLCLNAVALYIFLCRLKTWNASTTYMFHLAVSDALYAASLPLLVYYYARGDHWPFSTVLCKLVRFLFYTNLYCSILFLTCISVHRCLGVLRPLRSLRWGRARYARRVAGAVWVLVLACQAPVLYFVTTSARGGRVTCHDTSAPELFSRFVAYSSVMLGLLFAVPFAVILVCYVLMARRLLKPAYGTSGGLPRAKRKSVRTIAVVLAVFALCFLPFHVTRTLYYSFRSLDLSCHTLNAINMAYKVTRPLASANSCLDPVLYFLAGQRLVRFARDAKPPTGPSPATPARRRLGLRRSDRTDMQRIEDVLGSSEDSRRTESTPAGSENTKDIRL", "assay": "Antagonist activity at human P2Y2 receptor expressed in human 1321N1 cells assessed as inhibition of ATP-induced intracellular calcium influx preincubated for 20 mins followed by ATP addition measured at 0.4 secs interval for 60 times by Oregon Green BAPTA-1/AM dye-based fluorescence assay", "format": "functional, cell-based"}, "[10]": {"target": "T2, Uracil nucleotide/cysteinyl leukotriene receptor (Homo sapiens, UniProt Q13304)", "T2 sequence (Q13304 whole entry)": "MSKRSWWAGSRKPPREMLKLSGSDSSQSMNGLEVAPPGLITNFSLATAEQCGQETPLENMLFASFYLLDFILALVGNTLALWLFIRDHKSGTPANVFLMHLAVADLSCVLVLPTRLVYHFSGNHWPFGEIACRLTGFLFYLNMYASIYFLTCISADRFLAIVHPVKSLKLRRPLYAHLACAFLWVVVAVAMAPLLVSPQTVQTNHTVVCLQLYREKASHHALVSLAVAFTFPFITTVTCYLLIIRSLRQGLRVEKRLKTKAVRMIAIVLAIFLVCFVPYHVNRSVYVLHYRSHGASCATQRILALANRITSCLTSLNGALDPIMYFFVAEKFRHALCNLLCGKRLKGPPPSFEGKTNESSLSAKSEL", "assay": "(§2) Antagonist activity at human GPR17 expressed in human 1321N1 cells assessed as inhibition of ATP-induced intracellular calcium influx preincubated for 20 mins followed by ATP addition measured at 0.4 secs interval for 60 times by Oregon Green BAPTA-1/AM dye-based fluorescence assay", "format": "functional, cell-based"}, "[11]": {"target": "T2, Uracil nucleotide/cysteinyl leukotriene receptor", "assay": "as §2, with “influx at 10 uM” for “influx”, “assay relative to control” for “assay”", "format": "functional, cell-based"}, "P2Y purinoceptor 6": {"target": "P2Y purinoceptor 6 (Rattus norvegicus, UniProt Q63371)", "sequence (Q63371 whole entry)": "as the sequence (Q63371 whole entry) above", "assay": "Antagonist activity at rat P2Y6 receptor expressed in human 1321N1 cells assessed as inhibition of UDP-induced intracellular calcium influx preincubated for 20 mins followed by UDP addition measured at 0.4 secs interval for 60 times by Oregon Green BAPTA-1/AM dye-based fluorescence assay", "format": "functional, cell-based"}}, "note": "Active and inactive are the calls of the source. No cut-off for these calls is given here."}
{"smiles": "O=C(Nc1ccc(S(=O)(=O)Oc2cccc([N+](=O)[O-])c2)cc1)c1ccccc1Cl", "values": [{"measurement": "inhibition", "setting": "[1]", "result": "inactive"}, {"measurement": "inhibition", "setting": "[2]", "result": "inactive"}, {"measurement": "inhibition", "setting": "[3]", "result": "inactive"}, {"measurement": "inhibition", "setting": "[4]", "result": "inactive"}, {"measurement": "inhibition", "setting": "[5]", "result": "inactive"}, {"measurement": "Stabilty", "setting": "[6]", "result": "Stable"}, {"measurement": "Stabilty", "setting": "[7]", "result": "Stable"}, {"measurement": "Stabilty", "setting": "[8]", "result": "Stable"}, {"measurement": "Drug metabolism", "setting": "[9]", "result": 1.4, "unit": "%"}]}
{"smiles": "Cc1ccc(C(=O)Nc2ccc(S(=O)(=O)O)c3cc(S(=O)(=O)O)cc(S(=O)(=O)O)c23)cc1NC(=O)c1cccc(NC(=O)Nc2cccc(C(=O)Nc3cc(C(=O)Nc4ccc(S(=O)(=O)O)c5cc(S(=O)(=O)O)cc(S(=O)(=O)O)c45)ccc3C)c2)c1", "note": "[SURAMIN HEXASODIUM]", "values": [{"measurement": "IC50", "setting": "P2Y purinoceptor 2", "result": "> 100", "unit": "µM"}, {"measurement": "IC50", "setting": "[10]", "result": "> 100", "unit": "µM"}, {"measurement": "inhibition", "setting": "[11]", "result": 33, "unit": "%"}]}
{"smiles": "Cc1cccc(C(=O)Nc2ccc(S(=O)(=O)Oc3cccc([N+](=O)[O-])c3)cc2)c1", "values": [{"measurement": "inhibition", "setting": "[1]", "result": "inactive"}, {"measurement": "IC50", "setting": "P2Y purinoceptor 6", "result": 6.19, "unit": "µM"}, {"measurement": "inhibition", "setting": "[3]", "result": "inactive"}, {"measurement": "inhibition", "setting": "[4]", "result": "inactive"}, {"measurement": "inhibition", "setting": "[5]", "result": "inactive"}]}
{"smiles": "COC(=O)c1cccc(NC(=O)Nc2cccc(C(=O)Nc3cccc(C)c3)c2)c1", "values": [{"measurement": "inhibition", "setting": "[1]", "result": "inactive"}, {"measurement": "inhibition", "setting": "[2]", "result": "inactive"}, {"measurement": "inhibition", "setting": "[3]", "result": "inactive"}, {"measurement": "inhibition", "setting": "[4]", "result": "inactive"}, {"measurement": "inhibition", "setting": "[5]", "result": "inactive"}]}
{"smiles": "CC(=O)c1cccc(C(=O)Nc2ccc(S(=O)(=O)Oc3cccc([N+](=O)[O-])c3)cc2)c1", "values": [{"measurement": "inhibition", "setting": "[1]", "result": "inactive"}, {"measurement": "inhibition", "setting": "[2]", "result": "inactive"}, {"measurement": "inhibition", "setting": "[3]", "result": "inactive"}, {"measurement": "inhibition", "setting": "[4]", "result": "inactive"}, {"measurement": "inhibition", "setting": "[5]", "result": "inactive"}]}
{"smiles": "Cc1ccc(C(=O)Nc2ccc(S(=O)(=O)Nc3cccc([N+](=O)[O-])c3)cc2)cc1", "values": [{"measurement": "inhibition", "setting": "[1]", "result": "inactive"}, {"measurement": "inhibition", "setting": "[2]", "result": "inactive"}, {"measurement": "inhibition", "setting": "[3]", "result": "inactive"}, {"measurement": "inhibition", "setting": "[4]", "result": "inactive"}, {"measurement": "inhibition", "setting": "[5]", "result": "inactive"}]}
{"smiles": "Cc1cccc(C(=O)Nc2ccc(S(=O)(=O)Nc3cccc([N+](=O)[O-])c3)cc2)c1", "values": [{"measurement": "inhibition", "setting": "[1]", "result": "inactive"}, {"measurement": "inhibition", "setting": "[2]", "result": "inactive"}, {"measurement": "inhibition", "setting": "[3]", "result": "inactive"}, {"measurement": "inhibition", "setting": "[4]", "result": "inactive"}, {"measurement": "inhibition", "setting": "[5]", "result": "inactive"}]}
{"smiles": "Cc1cccc(C(=O)Nc2ccc(S(=O)(=O)Oc3cccc(C#N)c3)cc2)c1", "values": [{"measurement": "inhibition", "setting": "[1]", "result": "inactive"}, {"measurement": "inhibition", "setting": "[2]", "result": "inactive"}, {"measurement": "inhibition", "setting": "[3]", "result": "inactive"}, {"measurement": "inhibition", "setting": "[4]", "result": "inactive"}, {"measurement": "inhibition", "setting": "[5]", "result": "inactive"}]}
